US20240180898A1, “USE OF AMINOTHIAZOLE DERIVATIVE IN TREATMENT OF IMMUNE INFLAMMATION” (INNAMUNE PHARMACEUTICAL CO. LTD., priority 2021, published 2024)

Tested on: macrophages derived from mouse bone marrow
Assay: LPS-induced secretion of inflammatory factors from macrophages, ELISA of supernatant
Format: cell-based
Conditions: 30 umol/L 2 hours before LPS 500 ng/ml for 24 hours; FIG. 2
Experimental: macrophage grouping (in vitro):
Cultivate macrophages derived from mouse bone marrow in vitro.
The experiment was divided into 8 groups, namely: • Control group (untreated mouse bone marrow-derived macrophages), • LPS group (500 ng/ml LPS stimulated macrophages for 24 hours), • LPS+TJ-2 group (2 hours before LPS stimulation, administer 30 umol/L TJ-2 drug stimulation), • LPS+TJ-5 group (2 hours before LPS stimulation, administer 30 umol/L TJ-5 drug stimulation), • LPS+TJ-8 group (2 hours before LPS stimulation, administer 30 umol/L TJ-8 drug stimulation), • LPS+TJ-9 group (2 hours before LPS stimulation, administer 30 umol/L TJ-9 drug stimulation), • LPS+TJ-11 group (2 hours before LPS stimulation, administer 30 umol/L TJ-11 drug stimulation), • and LPS+TJ-12 group (2 hours before LPS stimulation, administer 30 umol/L TJ-12 drug stimulation).
After 24 hours of LPS stimulation, the cell culture supernatant was removed and ELISA was performed to detect the concentration of various inflammatory factors in the supernatant.

Row | SMILES | inhibitory effect on inflammatory factors compared among the compounds | secretion of various inflammatory factors in macrophages (IL-1β, Il-6, TNF-α, IL-18, IL-17)
1 | Cc1cccc(-c2csc(NC(=O)CN3CCN(Cc4ccccc4)CC3)n2)c1 [INNA1612, 2-(4-benzyl-base)piperazine-1-N-(4-(3-methylphenyl)thiazole-2-base) acetamide] | have the same inhibitory effect on inflammatory factors | can inhibit the secretion of various inflammatory factors in macrophages
2 | COc1cccc(-c2csc(NC(=O)CCN3CCN(Cc4ccccc4)CC3)n2)c1 [INNA1609, 3-(4-benzylpiperazine-1-yl)-N-(4-(3-methoxyphenyl)thiazole-2-yl) propionamide] | have the same inhibitory effect on inflammatory factors | can inhibit the secretion of various inflammatory factors in macrophages
3 | Cc1ccc(N2CCN(CC(=O)Nc3nc(-c4ccccc4)cs3)CC2)cc1 [INNA1602, 2-(4-(4-methylphenyl)piperazine-1-yl) -N-(4-phenylthiazole-2-yl) acetamide] | have the same inhibitory effect on inflammatory factors | can inhibit the secretion of various inflammatory factors in macrophages
4 | O=C(CN1CCN(Cc2ccccc2)CC1)Nc1nc(-c2ccccc2)cs1 [INNA1608, 2-(4-benzylpiperazine-1-yl)-N-(4-phenylthiazole-2-yl) acetamide] | have the same inhibitory effect on inflammatory factors | can inhibit the secretion of various inflammatory factors in macrophages
5 | Cc1cccc(-c2csc(NC(=O)CCN3CCN(c4cccc(C)c4)CC3)n2)c1 [INNA1611] | have the same inhibitory effect on inflammatory factors | can inhibit the secretion of various inflammatory factors in macrophages
